Among the test systems are 786-0 renal; ACHN renal; CCRF-CEM leukemia; HCT-15 colon; HOP-92 NSCLC; M14 melanoma; MOLT-4 leukemia; SNB-75 CNS; SW-620 colon; UACC-62 melanoma.
Test in all cases: inhibition of tumour cell growth, NCI panel, 48 h

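In this assay, cells in 96-well plates receive the compound at five concentrations for 48 hours. Endpoints are linearly interpolated between the surrounding concentrations. GI50 is the concentration that inhibits growth by half. TGI is the concentration that stops growth completely.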

Turning to `C[C@]12CC[C@@H]3c4ccc(O)cc4CC[C@H]3[C@@H]1CC[C@@H]2NS(=O)(=O)c1cccc(F)c1`, the GI50 with 786-0 renal is 3.38 µM; in the experiment with ACHN renal, 2.71 µM; with CCRF-CEM leukemia, 3.28 µM; with HCT-15 colon it was 2.8 µM; with HOP-92 NSCLC, 2.43 µM; with M14 melanoma, 3.41 µM. The GI50 with MOLT-4 leukemia is 2.5 µM; in the experiment with SNB-75 CNS, 2.93 µM; in the experiment with SW-620 colon, 4.36 µM; with UACC-62 melanoma, 2.92 µM. Besides, the TGI worked out at 11.3 µM with 786-0 renal; 8.66 µM in the experiment with ACHN renal; 18.6 µM with CCRF-CEM leukemia; 11.3 µM in the experiment on HCT-15 colon; 8.64 µM with HOP-92 NSCLC; 11.9 µM with M14 melanoma. Further, the TGI was 9.59 µM in the experiment on MOLT-4 leukemia, 15 µM in the experiment with SNB-75 CNS, 16.8 µM in the experiment with SW-620 colon and 11.3 µM in the experiment with UACC-62 melanoma.
For `COc1ccc(C(=O)COc2cccc(/C=C3\Oc4ccc5ccccc5c4C3=O)c2)cc1`, the GI50 in the experiment on 786-0 renal was 2.22 µM; in the experiment with ACHN renal it was 15.2 µM; in the experiment with CCRF-CEM leukemia, 0.327 µM; with HCT-15 colon, 2.94 µM; in the experiment with HOP-92 NSCLC, 0.0932 µM; in the experiment with M14 melanoma, 4.8 µM. Further, the GI50 was 2.85 µM with MOLT-4 leukemia, 12.3 µM with SNB-75 CNS, 1.87 µM with SW-620 colon and 10.7 µM with UACC-62 melanoma. For the same molecule, the TGI with 786-0 renal came to 6.73 µM; with ACHN renal, 29 µM; in the experiment on CCRF-CEM leukemia it was 1.44 µM; in the experiment with HCT-15 colon, 13.7 µM; in the experiment on HOP-92 NSCLC it was 25.6 µM; in the experiment with M14 melanoma, 18.1 µM. Moreover, the TGI with MOLT-4 leukemia was 21.6 µM; in the experiment with SNB-75 CNS it was 29 µM; in the experiment on SW-620 colon it was 3.77 µM; with UACC-62 melanoma it was 22.5 µM.
Regarding `NC(CS/C(Cl)=C/Cl)C(=O)O` (stereo not given), the GI50 in the experiment on 786-0 renal was above 100 µM; with ACHN renal, 78.9 µM; in the experiment on CCRF-CEM leukemia, 20.3 µM; in the experiment on HCT-15 colon, 28.7 µM; in the experiment on HOP-92 NSCLC it was 33.2 µM; with M14 melanoma it was 8.19 µM. The GI50 with MOLT-4 leukemia is 41.9 µM; with SNB-75 CNS, above 75.9 µM; in the experiment on SW-620 colon, 39.8 µM; with UACC-62 melanoma it was 57 µM. In addition, the TGI in the experiment on 786-0 renal is above 100 µM; in the experiment on ACHN renal, above 100 µM; with CCRF-CEM leukemia it was above 100 µM; in the experiment with HCT-15 colon it was above 100 µM; in the experiment with HOP-92 NSCLC it was above 100 µM; in the experiment with M14 melanoma, above 68.3 µM. The TGI in the experiment with MOLT-4 leukemia, in the experiment on SNB-75 CNS, in the experiment on SW-620 colon and with UACC-62 melanoma was above 100 µM in each case.
As to `O=C(Nc1ccc(-c2ccccc2)cc1)C1CCN(S(=O)(=O)c2ccccc2Cl)CC1`, the GI50 with 786-0 renal was 23.6 µM; in the experiment on ACHN renal, 21.9 µM; in the experiment on CCRF-CEM leukemia it was 74.2 µM; in the experiment on HCT-15 colon, 77.4 µM; with HOP-92 NSCLC, 32.2 µM; with M14 melanoma, 64.1 µM. The GI50 in the experiment on MOLT-4 leukemia was above 100 µM; in the experiment with SNB-75 CNS, 36.5 µM; with SW-620 colon, 82.3 µM; with UACC-62 melanoma it was 39.8 µM. Besides, the TGI in the experiment with 786-0 renal is 77.9 µM; with ACHN renal, 57 µM; in the experiment on CCRF-CEM leukemia, above 100 µM; in the experiment on HCT-15 colon it was above 100 µM; with HOP-92 NSCLC, 91.2 µM; in the experiment with M14 melanoma, above 100 µM. Besides, the TGI in the experiment with MOLT-4 leukemia, in the experiment with SNB-75 CNS, in the experiment on SW-620 colon and in the experiment on UACC-62 melanoma was above 100 µM throughout.
`O=C(Nc1ccc(Br)cc1)c1ccc(Cl)c(Cl)c1`: the GI50 was 3.92 µM in the experiment with 786-0 renal; 2.83 µM in the experiment on ACHN renal; 4.81 µM with CCRF-CEM leukemia; 3.02 µM with HCT-15 colon; 0.341 µM in the experiment on HOP-92 NSCLC; 3.76 µM in the experiment on M14 melanoma. Also, the GI50 is 3.17 µM in the experiment with MOLT-4 leukemia, 3.2 µM with SNB-75 CNS, 3.59 µM in the experiment with SW-620 colon and 2.92 µM with UACC-62 melanoma. For the same molecule, the TGI in the experiment on 786-0 renal is above 100 µM; with ACHN renal, above 28.6 µM; in the experiment with CCRF-CEM leukemia, above 100 µM; in the experiment on HCT-15 colon it was above 100 µM; in the experiment on HOP-92 NSCLC, 5.1 µM; with M14 melanoma it was above 100 µM. In addition, the TGI was above 100 µM in the experiment on MOLT-4 leukemia, above 31 µM in the experiment on SNB-75 CNS, above 100 µM with SW-620 colon and above 100 µM in the experiment on UACC-62 melanoma.
As for `C=CCNC(=O)N(CCC)CCCCC(NC(C)=O)C(=O)NCc1ccccc1` (stereo not given), the TGI with 786-0 renal, with ACHN renal, in the experiment with CCRF-CEM leukemia, in the experiment with HCT-15 colon, with HOP-92 NSCLC and with M14 melanoma was above 100 µM each time. Also, the TGI in the experiment on MOLT-4 leukemia, with SNB-75 CNS, in the experiment with SW-620 colon and in the experiment on UACC-62 melanoma was above 100 µM in each case.
As for `COc1ccc2[nH]c3c4c(ccc3c2c1)C(=O)C=CC4=O`, the TGI came to 24.2 µM in the experiment on 786-0 renal; 15 µM in the experiment on ACHN renal; 6.55 µM in the experiment on CCRF-CEM leukemia; 11.4 µM in the experiment with HCT-15 colon; 7.64 µM in the experiment on HOP-92 NSCLC; 35.2 µM in the experiment on M14 melanoma. The TGI with MOLT-4 leukemia came to 3.1 µM; in the experiment on SNB-75 CNS it was 41.3 µM; with SW-620 colon, 6.63 µM; in the experiment on UACC-62 melanoma it was 36 µM.
For `Cc1c(C2=C(Br)C(=O)N(C)C2=O)c(=O)n(C)c(=O)n1C`, the TGI was 32.1 µM in the experiment with 786-0 renal; 94.3 µM in the experiment on ACHN renal; 48 µM with CCRF-CEM leukemia; 45.2 µM in the experiment with HCT-15 colon; 34.4 µM in the experiment with HOP-92 NSCLC; above 100 µM in the experiment on M14 melanoma. For the same molecule, the TGI in the experiment on MOLT-4 leukemia was 55.1 µM; with SNB-75 CNS, above 100 µM; in the experiment on SW-620 colon, above 100 µM; in the experiment with UACC-62 melanoma it was 97.9 µM.
`COc1ccc(C2c3cc(OC)c(OC)cc3C(Cc3ccc([N+](=O)[O-])cc3)C2c2ccc([N+](=O)[O-])cc2)cc1OC` (stereo not given): the TGI with 786-0 renal, in the experiment on ACHN renal, with CCRF-CEM leukemia, in the experiment with HCT-15 colon, in the experiment with HOP-92 NSCLC and with M14 melanoma was above 100 µM throughout. In addition, the TGI with MOLT-4 leukemia, in the experiment with SNB-75 CNS, with SW-620 colon and in the experiment with UACC-62 melanoma was above 100 µM in each case.
Regarding `CC12CCCCC1(C)C2Sc1ccccc1` (stereo not given), the TGI in the experiment with 786-0 renal was above 100 µM; in the experiment on ACHN renal, above 100 µM; in the experiment on CCRF-CEM leukemia, 44.4 µM; in the experiment on HCT-15 colon, above 100 µM; with HOP-92 NSCLC, 97 µM; with M14 melanoma it was above 100 µM. Besides, the TGI in the experiment with MOLT-4 leukemia is 41.6 µM; in the experiment on SNB-75 CNS it was above 100 µM; with SW-620 colon, above 100 µM; with UACC-62 melanoma, above 100 µM.

For the origin of these results see PubChem BioAssay (NCI).
